Laboratory results: US12365658B2, “Benzothia(di)azepine compounds and their use as bile acid modulators” (Albireo AB, priority 2021, dated 2025)

Assays:
[1] = Bidirectional permeability assay (Caco-2 cells); format: in vitro ADME; conditions: human, 10 μM in FaSSIF buffer; for Papp A→B at 120 min, 10 μM: Caco-2, pH 7.4, absorptive direction (A2B); for Papp B→A at 120 min, 10 μM: Caco-2, pH 7.4, secretory direction (B2A)
Description: Bidirectional Permeability Assay (Caco-2 Cells)
Caco-2 cells (Evotec) were seeded at a density of 70,000 cells/well in Millicell® 24-well cell culture insert plates and maintained in an incubator (37° C., 5% CO2, 95% RH) for 21 days with media change on alternate days.
Stock solutions (10 mM) of the test compounds, atenolol (low permeability marker), propranolol (high permeability marker) and digoxin (substrate for P-gp transport pathway) were prepared in dimethylsulfoxide (DMSO). An intermediate stock solution (1 mM) was prepared by diluting 10 μL of 10 mM master stock solution with 90 μL of neat DMSO. A working stock solution (10 μM) was prepared by diluting 50 μL of 1 mM with 4950 μL of FaSSIF buffer. Post addition of compounds to the FaSSIF, samples were subjected to sonication for 2 hours, and centrifuged at 4000 RPM for 30 minutes at 37° C. The 4 mL of resultant supernatant was directly used in the assay. The final DMSO concentration in the transport experiments was 1%.
On the day of assay, Caco-2 monolayers were washed twice with transport buffer (HBSS, pH 7.4) and pre-incubated for 30 min (37° C., 5% CO2, 95% RH) in an incubator. The electrical resistance of the monolayers was measured with a Millicell®-ERS system. Monolayers with trans-epithelial electrical resistance (TEER) values greater than 350 ohm·cm^2 were selected for the assay.
The assay was conducted in absorptive direction (A2B) and secretory (B2A) directions. Transport experiments were initiated by addition of transport assay buffer (FaSSIF buffer prepared in HBSS) consisting of compounds to the donor compartment (apical chamber A-B; basolateral chamber B-A) in duplicate (n=2) wells. Drug free HBSS buffer (pH 7.4) containing 1% bovine serum albumin (BSA) was introduced to the receiver (A-B-basolateral; B-A-Apical) compartments. The volumes of apical and basolateral compartments were 0.4 and 0.8 mL, respectively. After adding dosing solution, plates were incubated in an incubator for 120 minutes at 37° C. After 120 minutes, donor and receiver samples were collected and matrix matched (1:1, 30 μL study sample+30 μL blank buffer) with the opposite buffer. Dosing samples matrix matched (1:1, 30 μL study sample+30 μL blank buffer) with the opposite buffer. Samples were processed by adding acetonitrile containing internal standard (60 μL study sample+200 μL acetonitrile containing internal standard-Tolbutamide, 500 ng/mL). Samples were vortexed and centrifuged at 4000 rpm for 10 minutes. The obtained supernatant (100 μL) was diluted with 100 μL of water and transferred to fresh 96 well plates. The concentration of compounds in the samples was analyzed by liquid chromatography tandem mass spectrometry (LC-MS/MS) method using discovery grade bio-analytical method, as applicable.
The mean apparent permeability (Papp, ×10^−6 cm/sec) of the test compounds, atenolol, propranolol and digoxin were calculated as follows:
where dq/dt=rate of transport (rate of transport of compound in the receiver compartment), C0=initial concentration in the donor compartment, A=surface area of the effective filter membrane.

[2] = molecular target: T1, Human IBAT (Homo sapiens, UniProt Q12908); experiment: IBAT (h/m) assay, human IBAT-overexpressing cells, 3H-taurocholic acid uptake; format: cell-based; conditions: 0.25 μM 3H-taurocholic acid and 5 μM cold taurocholic acid, 20 minutes, highest test concentration 10 μM, read-out: hIBAT IC50
T1 construct: expressed in transfected cells; kept under Puromycin selection
T1 sequence (Q12908 1-348): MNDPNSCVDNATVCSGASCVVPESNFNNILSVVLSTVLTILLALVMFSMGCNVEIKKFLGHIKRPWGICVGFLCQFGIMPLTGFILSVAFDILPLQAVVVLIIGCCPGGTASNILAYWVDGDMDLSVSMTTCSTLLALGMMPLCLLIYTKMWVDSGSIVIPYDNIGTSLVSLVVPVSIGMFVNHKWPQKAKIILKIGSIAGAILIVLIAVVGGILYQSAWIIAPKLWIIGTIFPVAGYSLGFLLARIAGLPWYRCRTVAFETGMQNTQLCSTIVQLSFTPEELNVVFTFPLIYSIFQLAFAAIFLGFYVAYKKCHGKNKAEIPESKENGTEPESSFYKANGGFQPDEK
Description: IBAT (h/m) Assay Protocol
10,000 cells (Human or Mouse IBAT-overexpressing cells) were seeded in 96-wells plate (Corning CLS3809) in 200 μL MEM-alpha medium (Gibco 12571-063) supplemented with 10% FBS (Gibco 10438026) containing Puromycin (Gibco A1113803) (10 μg/mL) and incubated at 37° C. in 5% CO2 for 48 hours. After incubation, media was decanted from the wells and cells were washed two times with 300 μL of basal MEM-alpha medium (FBS-free). After decanting basal MEM-alpha medium each time, plates were tapped against paper towel to ensure maximum removal of residual media. Test inhibitor dilutions (highest test concentration being 10 μM, 3-fold serial dilution, 10 points) prepared in DMSO (Sigma D2650) were added in incubation mix (maintaining 0.2% final DMSO concentration) containing 0.25 μM 3H-taurocholic acid (ARC ART-1368) and 5 μM of cold taurocholic acid (Sigma T4009). 50 μL of incubation mix containing test inhibitors was then added to the wells (in duplicate) and the plates were incubated for 20 minutes in a CO2 incubator at 37° C. After incubation, the reaction was stopped by keeping the plates on ice water mix for 2-3 minutes and then the incubation mix was aspirated completely from the wells. The wells were washed two times with 250 μL of chilled unlabelled 1 mM taurocholic acid dissolved in HEPES (Gibco 15630080)-buffered (10 mM) HBSS (Gibco 14175079) (pH 7.4). The plates were tapped against a paper towel after every wash to ensure maximum removal of blocking buffer.
100 μL of MicroScint-20 (PerkinElmer 6013621) was added to the wells and kept overnight at room temperature before reading the plates in TopCount NXT™ Microplate Scintillation and Luminescence Counter from PerkinElmer under 3H Test protocol (set at 120 seconds reading time per well).
Preparation of Test Compound Dilutions
All test compounds were provided in powder form at room temperature. 10 mM DMSO stocks of the test compounds were prepared, aliquoted and stored at −20° C. From the 10 mM DMSO stock of the compounds, a 3-fold serial dilution in DMSO was prepared to get a total of 10 dilutions of the test compounds. 0.5 μL of this dilution in DMSO was added to 250 μL of FBS-free basal media containing 3H-taurocholic acid and cold taurocholic acid to prepare the incubation mixture.

SMILES	Papp A→B at 120 min, 10 μM [1] [×10⁻⁶ cm/s]	Papp B→A at 120 min, 10 μM [1] [×10⁻⁶ cm/s]	IC50 [2] [nM]
CCCCC1CN(c2ccccc2)c2cc(SCC)c(OCC(C)(C)C(=O)O)cc2S(=O)(=O)N1C (single isomer, unassigned) [6, enantiomer 2]	8.6	6.5	290
CCCCC1CN(c2ccccc2)c2cc(SCC)c(OCC(C)(C)C(=O)O)cc2S(=O)(=O)N1C (centres unmarked) [Example 5, 3-((3-Butyl-7-(ethylthio)-2-methyl-1,1-dioxido-5-phenyl-2,3,4,5-tetrahydro-1,2,5-benzothiadiazepin-8-yl)oxy)-2,2-dimethylpropanoic acid]	9.4	7.2	615
CCCCC1CN(c2ccccc2)c2cc(SC)c(OCC(C)(C)C(=O)O)cc2S(=O)(=O)N1C (single isomer, unassigned) [2, enantiomer 2]	13.2	15.2	682
CCCCC1CN(c2ccc(F)cc2)c2cc(SC)c(OCC(C)(C)C(=O)O)cc2S(=O)(=O)N1C (centres unmarked) [Example 13, 3-((3-butyl-5-(4-fluorophenyl)-2-methyl-7-(methylthio)-1,1-dioxido-2,3,4,5-tetrahydro-1,2,5-benzothiadiazepin-8-yl)oxy)-2,2-dimethylpropanoic acid]	10.8	8.6	360
CCCCC1CN(c2ccccc2)c2cc(SC)c(OCC(C)(OC)C(=O)O)cc2S(=O)(=O)N1C (centres unmarked) [Example 22, 3-((3-Butyl-2-methyl-7-(methylthio)-1,1-dioxido-5-phenyl-2,3,4,5-tetrahydro-1,2,5-benzothiadiazepin-8-yl)oxy)-2-methoxy-2-methylpropanoic acid]	11.7	21.5	428
CCCCC1CN(c2ccccc2)c2cc(SC)c(OCC(C)(OC)C(=O)O)cc2S(=O)(=O)N1C (single isomer, unassigned) [Example 23, 3-((3-Butyl-2-methyl-7-(methylthio)-1,1-dioxido-5-phenyl-2,3,4,5-tetrahydro-1,2,5-benzothiadiazepin-8-yl)oxy)-2-methoxy-2-methylpropanoic acid]	10.6	30.2	257
CCCCC1CN(c2ccccc2)c2cc(SC)c(OCC(C)(OC)C(=O)O)cc2S(=O)(=O)N1C (single isomer, unassigned) [24, diastereomer 2]			412
CCCCC1CN(c2ccccc2)c2cc(SC)c(OCC(OC)C(=O)O)cc2S(=O)(=O)N1C (single isomer, unassigned) [32, diastereomer 1]	5.2	15.9	2400
CCCCC1CN(c2ccccc2)c2cc(SC)c(OCC3(C(=O)O)CC3)cc2S(=O)(=O)N1C (single isomer, unassigned) [4, enantiomer 2]	18.8	13	294
CCCCC1CN(c2ccccc2)c2cc(SCC)c(OCC3(C(=O)O)CC3)cc2S(=O)(=O)N1C (single isomer, unassigned) [8, enantiomer 1]	15.8	5	166
CCCCC1CN(c2ccccc2)c2cc(SC)c(OCC3(C(=O)O)CC3)cc2S(=O)(=O)N1C (centres unmarked) [Example 3, 1-(((3-Butyl-2-methyl-7-(methylthio)-1,1-dioxido-5-phenyl-2,3,4,5-tetrahydro-1,2,5-benzothiadiazepin-8-yl)oxy)methyl)cyclopropane-1-carboxylic acid]	20.8	12.9	274
CCCCC1CN(c2ccc(F)cc2)c2cc(SCC)c(OCC(O)C(=O)O)cc2S(=O)(=O)N1C (centres unmarked) [Example 33, 3-((3-butyl-7-(ethylthio)-5-(4-fluorophenyl)-2-methyl-1,1-dioxido-2,3,4,5-tetrahydro-1,2,5-benzothiadiazepin-8-yl)oxy)-2-hydroxypropanoic acid]	2.2	4.3	117
CCCCC1CN(c2ccccc2)c2cc(SCC)c(OCC3(C(=O)O)CC3)cc2S(=O)(=O)N1C (centres unmarked) [Example 7, 1-(((3-Butyl-7-(ethylthio)-2-methyl-1,1-dioxido-5-phenyl-2,3,4,5-tetrahydro-1,2,5-benzothiadiazepin-8-yl)oxy)methyl)cyclopropane-1-carboxylic acid]	8.1	3.8	405
CCCCC1CN(c2ccccc2)c2cc(SC)c(OCC(C)(OC)C(=O)O)cc2S(=O)(=O)N1C (single isomer, unassigned) [24, diastereomer 1]			1030
